Source: patent US8802597B2, “Herbicidal pyrimidines” (E I du Pont de Nemours and Company, priority 2003, dated 2014)
Read-outs that look alike come from different tables or passages of the source.

Key:
Format in all cases: in vivo
[1] = tested on: cocklebur (Xanthium strumarium); assay: Test B pre/postemergence; details: Xanthium strumarium; for pest or weed control at 4 g/ha: 4 g ai/ha; for pest or weed control at 62 g/ha: 62 g ai/ha
Summary of the method: (§1)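 Plants treated pre- or postemergence were compared visually with controls after 13 to 15 days. Ratings ran from 0, no effect, to 100, complete control.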

corn (Zea mays) = assay: Test B pre/postemergence; details: Zea mays
Summary of the method: as §1

[2] = tested on: pigweed (Amaranthus retroflexus); assay: Test B pre/postemergence; details: Amaranthus retroflexus; for pest or weed control at 4 g/ha: 4 g ai/ha; for pest or weed control at 62 g/ha: 62 g ai/ha
Summary of the method: as §1

[3] = tested on: Surinam grass (Brachiaria decumbens); assay: Test B pre/postemergence; details: Urochloa decumbens; for pest or weed control at 4 g/ha: 4 g ai/ha; for pest or weed control at 62 g/ha: 62 g ai/ha
Summary of the method: as §1

[4] = tested on: morningglory (Ipomoea coccinea); assay: Test B pre/postemergence; details: Ipomoea; for pest or weed control at 4 g/ha: 4 g ai/ha; for pest or weed control at 62 g/ha: 62 g ai/ha
Summary of the method: as §1

[5] = tested on: velvetleaf (Abutilon theophrasti); assay: Test B pre/postemergence; details: Abutilon theophrasti; for pest or weed control at 4 g/ha: 4 g ai/ha; for pest or weed control at 62 g/ha: 62 g ai/ha
Summary of the method: as §1

[6] = tested on: giant foxtail (Setaria faberii); assay: Test B pre/postemergence; details: Setaria faberi; for pest or weed control at 4 g/ha: 4 g ai/ha; for pest or weed control at 62 g/ha: 62 g ai/ha
Summary of the method: as §1

[7] = tested on: crabgrass (Digitaria sanguinalis); assay: Test B pre/postemergence; details: Digitaria sanguinalis; for pest or weed control at 4 g/ha: 4 g ai/ha; for pest or weed control at 62 g/ha: 62 g ai/ha
Summary of the method: as §1

[8] = tested on: wheat (Triticum aestivum); assay: Test B pre/postemergence; details: Triticum aestivum, scale 0 to 100 (0 no effect, 100 complete control); for plant injury at 4 g/ha: 4 g ai/ha; for plant injury at 62 g/ha: 62 g ai/ha
Summary of the method: as §1

[9] = tested on: barnyardgrass (Echinochloa crus-galli); assay: Test B pre/postemergence; details: Echinochloa crus-galli, scale 0 to 100 (0 no effect, 100 complete control); for pest or weed control at 4 g/ha: 4 g ai/ha; for pest or weed control at 62 g/ha: 62 g ai/ha
Summary of the method: as §1

[10] = tested on: lambsquarters (Chenopodium album); assay: Test B pre/postemergence; details: Chenopodium album; for pest or weed control at 4 g/ha: 4 g ai/ha; for pest or weed control at 62 g/ha: 62 g ai/ha
Summary of the method: as §1

[11] = tested on: blackgrass (Alopecurus myosuroides); assay: Test B postemergence; details: Alopecurus myosuroides, post-emergence, scale 0 to 100 (0 no effect, 100 complete control), read-out: Blackgrass plant response rating
Summary of the method: as §1

wild oat (Avena fatua) = assay: Test B postemergence; details: Avena fatua, post-emergence, scale 0 to 100 (0 no effect, 100 complete control), read-out: Oat, Wild plant response rating
Summary of the method: as §1

[12] = post-emergence, Postemergence, scale 0 to 100 (0 no effect, 100 complete control), read-out: Cocklebur plant response rating
[13] = post-emergence, Postemergence, scale 0 to 100 (0 no effect, 100 complete control), read-out: Pigweed plant response rating
[14] = post-emergence, Postemergence, scale 0 to 100 (0 no effect, 100 complete control), read-out: Surinam Grass plant response rating
[15] = post-emergence, Postemergence, scale 0 to 100 (0 no effect, 100 complete control), read-out: Morningglory plant response rating
[16] = post-emergence, Postemergence, scale 0 to 100 (0 no effect, 100 complete control), read-out: Velvetleaf plant response rating
[17] = post-emergence, Postemergence, scale 0 to 100 (0 no effect, 100 complete control), read-out: Foxtail, Giant plant response rating
[18] = post-emergence, Postemergence, scale 0 to 100 (0 no effect, 100 complete control), read-out: Crabgrass plant response rating
[19] = post-emergence, Postemergence, read-out: Wheat plant response rating
[20] = pre-emergence, Preemergence, read-out: Plant response rating, Wheat
[21] = post-emergence, Postemergence, read-out: Barnyardgrass plant response rating
[22] = pre-emergence, Preemergence, read-out: Plant response rating, Barnyardgrass
[23] = post-emergence, Postemergence, scale 0 to 100 (0 no effect, 100 complete control), read-out: Lambsquarters plant response rating

For `Nc1nc(-c2ccc(Cl)cc2)nc(C(=O)O)c1Cl` [Compound 65, 6-amino-5-chloro-2-(4-chlorophenyl)-4-pyrimidinecarboxylic acid], the pest or weed control at 4 g/ha [1, 12] was 80%, the pest or weed control at 62 g/ha [1, 12] was 100% and the pest or weed control at 4 g/ha ([1]; pre-emergence, Preemergence, scale 0 to 100 (0 no effect, 100 complete control), read-out: Plant response rating, Cocklebur) was 10%. For the same compound, the pest or weed control at 62 g/ha ([1]; pre-emergence, Preemergence, scale 0 to 100, 0 no effect, 100 complete control, read-out: Plant response rating, Cocklebur) was 80%, the plant injury at 4 g/ha (corn (Zea mays); post-emergence, Postemergence, 4 g ai/ha, scale 0 to 100 (0 no effect, 100 complete control), read-out: Corn plant response rating) was 10% and the plant injury at 62 g/ha (corn (Zea mays); post-emergence, Postemergence, 62 g ai/ha, scale 0 to 100 (0 no effect, 100 complete control), read-out: Corn plant response rating) was 80%. It also gave a Corn plant response rating (crop injury, 0 = no effect, 100 = complete kill) at 4 g/ha (corn (Zea mays); pre-emergence, Preemergence, 4 g ai/ha, scale 0 to 100 (0 no effect, 100 complete control)) of 0%, a Corn plant response rating (crop injury, 0 = no effect, 100 = complete kill) at 62 g/ha (corn (Zea mays); pre-emergence, Preemergence, 62 g ai/ha, scale 0 to 100, 0 no effect, 100 complete control) of 0% and a pest or weed control at 4 g/ha [2, 13] of 70%. The pest or weed control at 62 g/ha [2, 13] was 100%, the pest or weed control at 4 g/ha ([2]; pre-emergence, Preemergence, scale 0 to 100 (0 no effect, 100 complete control), read-out: Plant response rating, Pigweed) was 20% and the pest or weed control at 62 g/ha ([2]; pre-emergence, Preemergence, scale 0 to 100, 0 no effect, 100 complete control, read-out: Plant response rating, Pigweed) was 100%. The pest or weed control at 4 g/ha [3, 14] was 20%, the pest or weed control at 62 g/ha [3, 14] was 80% and the pest or weed control at 4 g/ha ([3]; pre-emergence, Preemergence, scale 0 to 100 (0 no effect, 100 complete control), read-out: Plant response rating, Surinam Grass) was 0%. For the same compound, the pest or weed control at 62 g/ha ([3]; pre-emergence, Preemergence, scale 0 to 100, 0 no effect, 100 complete control, read-out: Plant response rating, Surinam Grass) was 40%, the pest or weed control at 4 g/ha [4, 15] was 70% and the pest or weed control at 62 g/ha [4, 15] was 80%. It also gave a pest or weed control at 4 g/ha ([4]; pre-emergence, Preemergence, scale 0 to 100 (0 no effect, 100 complete control), read-out: Plant response rating, Morningglory) of 0%, a pest or weed control at 62 g/ha ([4]; pre-emergence, Preemergence, scale 0 to 100, 0 no effect, 100 complete control, read-out: Plant response rating, Morningglory) of 30% and a pest or weed control at 4 g/ha [5, 16] of 50%. It also gave a pest or weed control at 62 g/ha [5, 16] of 90%, a pest or weed control at 4 g/ha ([5]; pre-emergence, Preemergence, scale 0 to 100 (0 no effect, 100 complete control), read-out: Plant response rating, Velvetleaf) of 0% and a pest or weed control at 62 g/ha ([5]; pre-emergence, Preemergence, scale 0 to 100, 0 no effect, 100 complete control, read-out: Plant response rating, Velvetleaf) of 70%. The pest or weed control at 4 g/ha [6, 17] was 40%, the pest or weed control at 62 g/ha [6, 17] was 70% and the pest or weed control at 4 g/ha ([6]; pre-emergence, Preemergence, scale 0 to 100 (0 no effect, 100 complete control), read-out: Plant response rating, Foxtail, Giant) was 0%. The pest or weed control at 62 g/ha ([6]; pre-emergence, Preemergence, scale 0 to 100, 0 no effect, 100 complete control, read-out: Plant response rating, Foxtail, Giant) was 30%, the pest or weed control at 4 g/ha [7, 18] was 20% and the pest or weed control at 62 g/ha [7, 18] was 80%. It also gave a pest or weed control at 4 g/ha ([7]; pre-emergence, Preemergence, scale 0 to 100 (0 no effect, 100 complete control), read-out: Plant response rating, Crabgrass) of 20%, a pest or weed control at 62 g/ha ([7]; pre-emergence, Preemergence, scale 0 to 100, 0 no effect, 100 complete control, read-out: Plant response rating, Crabgrass) of 70% and a plant injury at 4 g/ha [8, 19] of 0%. The plant injury at 62 g/ha [8, 19] was 50%, the plant injury at 4 g/ha [8, 20] was 20% and the plant injury at 62 g/ha [8, 20] was 80%. For the same compound, the pest or weed control at 4 g/ha [9, 21] was 20%, the pest or weed control at 62 g/ha [9, 21] was 70% and the pest or weed control at 4 g/ha [9, 22] was 0%. It also gave a pest or weed control at 62 g/ha [9, 22] of 40%, a pest or weed control at 4 g/ha [10, 23] of 80% and a pest or weed control at 62 g/ha [10, 23] of 100%. For the same compound, the pest or weed control at 4 g/ha ([10]; pre-emergence, Preemergence, scale 0 to 100 (0 no effect, 100 complete control), read-out: Plant response rating, Lambsquarters) was 30%, the pest or weed control at 62 g/ha ([10]; pre-emergence, Preemergence, scale 0 to 100, 0 no effect, 100 complete control, read-out: Plant response rating, Lambsquarters) was 90% and the pest or weed control at 4 g/ha ([11]; 4 g ai/ha) was 20%. The pest or weed control at 62 g/ha ([11]; 62 g ai/ha) was 70%, the pest or weed control at 4 g/ha (wild oat (Avena fatua); 4 g ai/ha) was 0% and the pest or weed control at 62 g/ha (wild oat (Avena fatua); 62 g ai/ha) was 40%.
